Active and inactive are the calls of the source.
Key:
[1] = target: Beta-lactamase (Salmonella choleraesuis (strain SC-B67), UniProt Q5J463); experiment: Epi-absorbance-based counterscreen for selective VIM-2 inhibitors: dose response biochemical high throughput screening assay to identify inhibitors of TEM-1 serine-beta-lactamase.
[2] = target: T1, Beta-lactamase (Pseudomonas aeruginosa, UniProt Q79MP6); experiment: IMP-1 metallo-beta-lactamase inhibitors, dose response, selectivity assay for VIM-2 inhibitor project, biochemical, epi-absorbance (AID 1920)
[3] = target: T1, Beta-lactamase; experiment: […] counterscreen for selective VIM-2 inhibitors: dose response biochemical high throughput screening assay to identify inhibitors of IMP-1 metallo-beta-lactamase.
[4] = cells; type: functional, cell-based
[5] = target: T2, Nuclear receptor subfamily 0 group B member 1 (Homo sapiens, UniProt P51843); type: functional, cell-based;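 further: HEK293T cells transfected with SF-1 and DAX-1 plus StAR promoter luciferase reporter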
T2 sequence (P51843 whole entry): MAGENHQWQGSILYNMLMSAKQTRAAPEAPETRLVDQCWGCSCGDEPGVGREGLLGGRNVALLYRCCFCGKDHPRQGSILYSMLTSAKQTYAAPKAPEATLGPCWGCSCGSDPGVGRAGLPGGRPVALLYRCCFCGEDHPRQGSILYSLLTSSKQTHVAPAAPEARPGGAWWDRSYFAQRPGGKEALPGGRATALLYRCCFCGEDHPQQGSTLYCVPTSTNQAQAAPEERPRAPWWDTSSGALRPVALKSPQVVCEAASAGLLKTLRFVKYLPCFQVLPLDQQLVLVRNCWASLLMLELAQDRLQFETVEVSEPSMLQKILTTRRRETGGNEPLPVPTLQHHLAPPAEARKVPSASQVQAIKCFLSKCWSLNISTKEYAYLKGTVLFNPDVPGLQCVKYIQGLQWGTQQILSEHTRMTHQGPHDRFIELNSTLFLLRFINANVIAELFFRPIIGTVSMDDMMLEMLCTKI

[6] = target: Mu-type opioid receptor (Homo sapiens, UniProt P35372); type: functional, cell-based;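 further: U2OS cells with beta-arrestin recruitment to OPRM1 by beta-gal complementation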
[7] = target: 5-hydroxytryptamine receptor 2A (Mus musculus, UniProt P35363); type: functional, cell-based;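 further: CHO-K1 cells with tagged receptor and beta-arrestin; agonist potency measured as compound-induced activation of the receptor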
[8] = test system: Streptococcus sp. 'group A'; experiment: growth inhibition of control SK(-) GAS strain, dose response, counter-screen for streptokinase expression inhibitor project, luminescence, kanamycin, BacTiterGlo, confirmation (AID 1900); type: functional, organism-based
[9] = target: Beta-galactosidase (Escherichia coli, UniProt Q8VNN2); experiment: PubChem AID 485352; type: functional
[10] = target: T3, Streptokinase A (Streptococcus pyogenes serotype M1, UniProt P10520); experiment: S. pyogenes streptokinase expression inhibitors, potency, dose response, plasminogen activation absorbance, OD405 (AID 1914); type: functional, Streptococcus pyogenes M1 GAS;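 further: secreted streptokinase activity via plasminogen activation per viability signal from cell pellet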
T3 sequence (P10520 whole entry): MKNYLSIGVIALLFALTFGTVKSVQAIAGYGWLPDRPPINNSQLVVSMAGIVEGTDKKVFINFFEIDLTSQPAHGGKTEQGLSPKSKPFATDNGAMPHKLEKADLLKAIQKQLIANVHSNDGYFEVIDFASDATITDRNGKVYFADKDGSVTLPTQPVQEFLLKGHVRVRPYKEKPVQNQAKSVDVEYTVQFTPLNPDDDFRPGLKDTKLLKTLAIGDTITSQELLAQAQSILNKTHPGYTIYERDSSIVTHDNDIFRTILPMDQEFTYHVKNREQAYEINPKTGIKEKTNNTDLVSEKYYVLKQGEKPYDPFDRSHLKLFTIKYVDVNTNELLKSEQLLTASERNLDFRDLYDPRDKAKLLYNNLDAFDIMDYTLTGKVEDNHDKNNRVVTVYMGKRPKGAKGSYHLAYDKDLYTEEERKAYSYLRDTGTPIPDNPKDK

[11] = target: T4, Type-1 angiotensin II receptor (Homo sapiens, UniProt P30556); experiment: AT1 receptor antagonists, dose response, selectivity assay for APJ receptor antagonist project, cell-based, uHTS hits (AID 463214); type: functional;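 further: antagonist potency against angiotensin II stimulated AT1 response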
T4 sequence (P30556 whole entry): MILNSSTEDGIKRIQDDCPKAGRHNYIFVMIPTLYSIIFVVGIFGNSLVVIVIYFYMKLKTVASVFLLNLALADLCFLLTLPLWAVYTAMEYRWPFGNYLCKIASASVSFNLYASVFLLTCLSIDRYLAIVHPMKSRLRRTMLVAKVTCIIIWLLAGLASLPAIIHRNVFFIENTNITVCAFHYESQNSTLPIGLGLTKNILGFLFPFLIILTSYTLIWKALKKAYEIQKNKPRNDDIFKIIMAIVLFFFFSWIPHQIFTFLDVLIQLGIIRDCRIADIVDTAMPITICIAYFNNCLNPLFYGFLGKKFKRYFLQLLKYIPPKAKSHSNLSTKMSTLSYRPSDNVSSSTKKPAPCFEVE

[12] = test system: Streptococcus; experiment: Group A Streptococcus viability loss, dose response, counter-screen for streptokinase expression inhibitor project, luminescence, BacTiterGlo (AID 1915); type: functional, organism-based;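 further: potency for reduction of bacterial viability or growth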
[13] = inhibitors of firefly luciferase expression or activity, dose response, H4 neuroglioma cells, luminescence (AID 1990); type: functional, cell-based
[14] = Luminescence Cell-Based Dose Response HTS to Identify Inhibitors of 5'UTR Stem-Loop Driven Prion Protein mRNA Translation in H4 Neuroglioblastoma Cells. [Related pubchem assays: 1827 (Project Summary), 1813 (Primary HTS)]; type: functional
[15] = inhibitors of SNCA 5'UTR-driven reporter translation, confirmation, H4 neuroglioma cells, luminescence (AID 1988); type: functional, cell-based
[16] = target: T5, Adenosylmethionine-8-amino-7-oxononanoate aminotransferase (Mycobacterium tuberculosis, UniProt P9WQ81); experiment: Mycobacterium tuberculosis BioA enzyme inhibitor Measured in Biochemical System Using Plate Reader - 2163-02_Inhibitor_Dose_CherryPick_Activity.; type: functional, Mycobacterium tuberculosis UT205
T5 sequence (P9WQ81 whole entry): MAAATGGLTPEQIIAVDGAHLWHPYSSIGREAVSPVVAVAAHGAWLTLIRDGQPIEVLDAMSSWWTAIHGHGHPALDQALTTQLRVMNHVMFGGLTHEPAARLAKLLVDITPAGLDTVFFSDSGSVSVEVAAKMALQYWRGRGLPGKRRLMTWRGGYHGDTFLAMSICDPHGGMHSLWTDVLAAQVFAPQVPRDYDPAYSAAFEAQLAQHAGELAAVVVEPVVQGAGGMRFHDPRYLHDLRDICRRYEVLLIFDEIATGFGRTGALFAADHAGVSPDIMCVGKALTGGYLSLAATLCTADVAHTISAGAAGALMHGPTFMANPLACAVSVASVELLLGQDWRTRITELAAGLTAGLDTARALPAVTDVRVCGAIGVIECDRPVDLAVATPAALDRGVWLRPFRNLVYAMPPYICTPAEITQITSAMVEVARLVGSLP

[17] = target: T6, Long-chain-fatty-acid--AMP ligase FadD28 (Mycobacterium tuberculosis, UniProt P9WQ59); experiment: Fluorescence polarization aasay to screen for inhibitors that compete for the binding of FadD28 to a bisubstrate Measured in Biochemical System Using Plate Reader - 2147-01_Inhibitor_Dose_CherryPick_Activity.; type: functional, Mycobacterium tuberculosis H37Rv
T6 sequence (P9WQ59 whole entry): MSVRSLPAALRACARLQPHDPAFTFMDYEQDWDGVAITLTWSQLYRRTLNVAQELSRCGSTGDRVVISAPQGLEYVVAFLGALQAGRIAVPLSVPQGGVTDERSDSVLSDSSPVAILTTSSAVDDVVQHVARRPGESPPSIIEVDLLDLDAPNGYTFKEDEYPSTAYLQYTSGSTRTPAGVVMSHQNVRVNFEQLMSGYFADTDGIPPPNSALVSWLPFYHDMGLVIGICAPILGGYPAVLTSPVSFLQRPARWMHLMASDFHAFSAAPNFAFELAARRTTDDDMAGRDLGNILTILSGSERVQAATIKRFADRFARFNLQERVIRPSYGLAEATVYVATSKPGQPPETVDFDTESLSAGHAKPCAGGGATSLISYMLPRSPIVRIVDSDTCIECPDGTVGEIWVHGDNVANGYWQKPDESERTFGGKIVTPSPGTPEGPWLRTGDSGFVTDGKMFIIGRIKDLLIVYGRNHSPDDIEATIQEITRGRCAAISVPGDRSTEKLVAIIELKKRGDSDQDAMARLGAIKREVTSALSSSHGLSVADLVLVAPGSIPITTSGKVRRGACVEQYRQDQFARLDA

[18] = target: Large T antigen (Simian virus 40, UniProt P03070); type: functional, Betapolyomavirus macacae;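 further: Confirmatory-stage PubChem screen for compounds that inhibit SV40 T antigen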
[19] = target: T7, Heat shock factor protein 1 (Mus musculus, UniProt P38532); experiment: HSF1 potentiators in luciferase reporter cells, confirmation, cell-based, NIH3T3, luminescence, dose retest (AID 435004); type: functional;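 further: stress induced by proteasome inhibitor MG132 added 30 min after compound; luciferase reporter driven by HSF1 response element in NIH3T3 cells; actives raise luminescence as potentiators of the MG132 stress response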
T7 sequence (P38532 whole entry): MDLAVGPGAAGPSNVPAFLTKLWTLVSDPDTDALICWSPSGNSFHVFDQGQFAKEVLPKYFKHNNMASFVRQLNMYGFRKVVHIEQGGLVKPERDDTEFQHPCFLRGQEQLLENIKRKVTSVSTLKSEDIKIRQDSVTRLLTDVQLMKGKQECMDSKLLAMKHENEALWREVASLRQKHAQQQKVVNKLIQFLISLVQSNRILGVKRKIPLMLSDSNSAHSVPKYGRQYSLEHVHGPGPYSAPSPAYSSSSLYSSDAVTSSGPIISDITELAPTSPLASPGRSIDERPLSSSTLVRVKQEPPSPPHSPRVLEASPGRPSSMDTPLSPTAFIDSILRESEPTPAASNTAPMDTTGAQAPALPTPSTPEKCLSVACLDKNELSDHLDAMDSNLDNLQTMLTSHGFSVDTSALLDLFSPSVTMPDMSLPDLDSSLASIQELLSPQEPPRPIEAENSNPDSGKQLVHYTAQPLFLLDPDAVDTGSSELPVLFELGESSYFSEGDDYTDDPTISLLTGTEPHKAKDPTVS

[20] = target: T8, Small ubiquitin-related modifier 1 (Homo sapiens, UniProt P63165); experiment: inhibitors of SUMO1 peptide binding, dose response, biochemical, fluorescence polarization, uHTS hits (AID 624382); type: functional; conditions: read-out: IC50_Mean
[21] = target: T8, Small ubiquitin-related modifier 1; experiment: inhibitors of SUMO1 partner interactions, dose response, biochemical, FRET (AID 624383); type: functional; conditions: read-out: IC50_Mean
[22] = target: Photoreceptor-specific nuclear receptor (Homo sapiens, UniProt Q9Y5X4); type: functional, cell-based;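 further: CHO-S cells with Gal4-NCOR and VP16-NR2E3 two-hybrid luciferase reporter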
[23] = target: SWI/SNF-related matrix-associated actin-dependent regulator of chromatin subfamily A member 2 (Homo sapiens, UniProt P51531); experiment: Luminescence-based cell-based high throughput dose response assay to identify activators of the function of SWI/SNF related, matrix associated, actin dependent regulator of chromatin, subfamily a, member 2 (SMARCA2, BRM).; type: functional
[24] = Counterscreen for activators of the function of SWI/SNF related, matrix associated, actin dependent regulator of chromatin, subfamily a, member 2 (SMARCA2, BRM): Luminescence-based cell-based high throughput dose response assay to identify non-selective compounds using the VP16 reporter assay.; type: functional
[25] = target: Luciferin 4-monooxygenase (Photinus pyralis, UniProt P08659); experiment: firefly luciferase enzyme inhibitors, dose response, biochemical, luminescence (AID 1891)
[26] = Luminescence Cell-Based Dose Confirmation HTS to Identify Inhibitors of Platelet Dense Granule Release. [Related pubchem assays: 1663 (Primary HTS), 1678 (Summary of Project)]; type: functional

Sequence of Mu-type opioid receptor (P35372 whole entry): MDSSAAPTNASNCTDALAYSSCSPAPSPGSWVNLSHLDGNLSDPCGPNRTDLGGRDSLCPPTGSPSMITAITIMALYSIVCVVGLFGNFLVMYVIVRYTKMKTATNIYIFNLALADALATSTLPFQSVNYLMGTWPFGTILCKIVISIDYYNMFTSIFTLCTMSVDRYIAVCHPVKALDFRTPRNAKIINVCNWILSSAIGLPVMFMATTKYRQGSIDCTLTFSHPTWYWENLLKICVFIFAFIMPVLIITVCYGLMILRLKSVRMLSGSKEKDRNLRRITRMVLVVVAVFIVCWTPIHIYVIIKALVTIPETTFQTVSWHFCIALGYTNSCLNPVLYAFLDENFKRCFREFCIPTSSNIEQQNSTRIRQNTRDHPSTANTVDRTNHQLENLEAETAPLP
Sequence of 5-hydroxytryptamine receptor 2A (P35363 whole entry): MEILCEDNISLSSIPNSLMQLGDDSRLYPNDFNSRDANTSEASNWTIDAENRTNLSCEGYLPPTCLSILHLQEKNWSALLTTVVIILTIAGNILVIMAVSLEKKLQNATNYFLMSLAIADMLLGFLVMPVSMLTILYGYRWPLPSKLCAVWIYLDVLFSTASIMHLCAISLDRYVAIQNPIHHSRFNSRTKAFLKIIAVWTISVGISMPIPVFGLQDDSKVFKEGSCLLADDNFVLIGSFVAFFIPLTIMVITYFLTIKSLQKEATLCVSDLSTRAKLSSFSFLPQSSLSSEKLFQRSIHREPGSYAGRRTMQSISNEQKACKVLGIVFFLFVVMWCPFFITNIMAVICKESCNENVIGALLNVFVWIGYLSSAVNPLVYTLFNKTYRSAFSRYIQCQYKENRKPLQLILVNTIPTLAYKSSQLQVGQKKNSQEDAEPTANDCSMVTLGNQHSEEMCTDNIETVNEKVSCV
T1 sequence (Q79MP6 whole entry): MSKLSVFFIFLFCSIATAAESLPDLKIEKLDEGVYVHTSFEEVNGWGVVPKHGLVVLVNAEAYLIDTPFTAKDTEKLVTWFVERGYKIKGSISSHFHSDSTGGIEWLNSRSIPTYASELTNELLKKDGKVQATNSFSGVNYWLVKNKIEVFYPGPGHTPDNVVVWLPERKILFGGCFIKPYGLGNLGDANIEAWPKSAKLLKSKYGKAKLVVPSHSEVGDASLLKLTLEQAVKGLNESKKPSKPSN
Sequence of Beta-lactamase (Salmonella choleraesuis (strain SC-B67), UniProt Q5J463) (Q5J463 whole entry): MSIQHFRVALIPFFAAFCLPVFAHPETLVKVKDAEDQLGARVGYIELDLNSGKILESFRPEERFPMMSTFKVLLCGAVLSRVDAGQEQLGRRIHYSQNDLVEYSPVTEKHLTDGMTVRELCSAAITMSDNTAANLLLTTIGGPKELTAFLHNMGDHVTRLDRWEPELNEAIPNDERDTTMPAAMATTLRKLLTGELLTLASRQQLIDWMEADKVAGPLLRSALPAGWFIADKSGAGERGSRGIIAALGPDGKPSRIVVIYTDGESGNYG
Sequence of Beta-galactosidase (Q8VNN2 whole entry): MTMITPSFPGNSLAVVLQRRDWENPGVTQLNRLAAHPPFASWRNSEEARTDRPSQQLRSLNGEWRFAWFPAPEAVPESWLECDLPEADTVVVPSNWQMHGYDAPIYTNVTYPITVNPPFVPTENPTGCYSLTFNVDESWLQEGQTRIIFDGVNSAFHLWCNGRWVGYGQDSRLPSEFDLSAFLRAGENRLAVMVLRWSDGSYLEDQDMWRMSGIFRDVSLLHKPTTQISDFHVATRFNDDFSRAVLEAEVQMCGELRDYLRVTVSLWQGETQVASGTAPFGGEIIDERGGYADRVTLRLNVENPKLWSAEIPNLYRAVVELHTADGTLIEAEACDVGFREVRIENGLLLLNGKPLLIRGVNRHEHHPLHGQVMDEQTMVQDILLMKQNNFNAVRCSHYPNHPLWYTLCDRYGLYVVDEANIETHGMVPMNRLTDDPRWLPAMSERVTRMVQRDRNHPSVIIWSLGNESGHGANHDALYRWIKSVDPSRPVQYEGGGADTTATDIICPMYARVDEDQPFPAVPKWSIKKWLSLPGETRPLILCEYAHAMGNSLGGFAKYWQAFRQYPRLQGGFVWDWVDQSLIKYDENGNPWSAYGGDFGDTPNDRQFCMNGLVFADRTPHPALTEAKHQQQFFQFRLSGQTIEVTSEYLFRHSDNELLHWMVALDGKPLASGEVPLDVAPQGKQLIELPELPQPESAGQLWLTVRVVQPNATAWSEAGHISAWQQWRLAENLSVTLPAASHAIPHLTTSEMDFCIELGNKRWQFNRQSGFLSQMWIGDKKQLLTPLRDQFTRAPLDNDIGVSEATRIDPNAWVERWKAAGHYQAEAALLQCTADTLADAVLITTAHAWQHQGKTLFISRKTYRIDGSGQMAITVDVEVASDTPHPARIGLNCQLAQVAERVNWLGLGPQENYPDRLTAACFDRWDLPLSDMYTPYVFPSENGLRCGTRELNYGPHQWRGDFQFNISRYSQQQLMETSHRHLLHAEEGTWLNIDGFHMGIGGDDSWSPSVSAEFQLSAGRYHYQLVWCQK
T8 sequence (P63165 whole entry): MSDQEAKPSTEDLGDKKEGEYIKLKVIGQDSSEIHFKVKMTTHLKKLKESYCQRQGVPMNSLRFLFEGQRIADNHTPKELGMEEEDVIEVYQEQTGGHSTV
Sequence of Luciferin 4-monooxygenase (P08659 whole entry): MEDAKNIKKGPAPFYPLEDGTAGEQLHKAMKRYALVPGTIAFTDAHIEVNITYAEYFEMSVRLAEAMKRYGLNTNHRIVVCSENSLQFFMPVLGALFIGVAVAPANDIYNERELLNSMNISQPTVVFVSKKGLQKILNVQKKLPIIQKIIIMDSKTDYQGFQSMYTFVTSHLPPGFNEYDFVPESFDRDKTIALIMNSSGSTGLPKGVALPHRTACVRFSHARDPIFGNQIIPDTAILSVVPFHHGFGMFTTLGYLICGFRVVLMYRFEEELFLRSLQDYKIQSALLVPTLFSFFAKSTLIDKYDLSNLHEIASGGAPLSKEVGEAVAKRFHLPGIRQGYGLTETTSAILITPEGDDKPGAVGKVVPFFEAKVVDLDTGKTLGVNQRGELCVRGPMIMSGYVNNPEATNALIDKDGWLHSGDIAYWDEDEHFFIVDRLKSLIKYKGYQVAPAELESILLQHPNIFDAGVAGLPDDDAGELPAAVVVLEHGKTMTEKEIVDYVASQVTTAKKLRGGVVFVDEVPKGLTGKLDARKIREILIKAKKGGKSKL
Sequence of SWI/SNF-related matrix-associated actin-dependent regulator of chromatin subfamily A member 2 (P51531 whole entry): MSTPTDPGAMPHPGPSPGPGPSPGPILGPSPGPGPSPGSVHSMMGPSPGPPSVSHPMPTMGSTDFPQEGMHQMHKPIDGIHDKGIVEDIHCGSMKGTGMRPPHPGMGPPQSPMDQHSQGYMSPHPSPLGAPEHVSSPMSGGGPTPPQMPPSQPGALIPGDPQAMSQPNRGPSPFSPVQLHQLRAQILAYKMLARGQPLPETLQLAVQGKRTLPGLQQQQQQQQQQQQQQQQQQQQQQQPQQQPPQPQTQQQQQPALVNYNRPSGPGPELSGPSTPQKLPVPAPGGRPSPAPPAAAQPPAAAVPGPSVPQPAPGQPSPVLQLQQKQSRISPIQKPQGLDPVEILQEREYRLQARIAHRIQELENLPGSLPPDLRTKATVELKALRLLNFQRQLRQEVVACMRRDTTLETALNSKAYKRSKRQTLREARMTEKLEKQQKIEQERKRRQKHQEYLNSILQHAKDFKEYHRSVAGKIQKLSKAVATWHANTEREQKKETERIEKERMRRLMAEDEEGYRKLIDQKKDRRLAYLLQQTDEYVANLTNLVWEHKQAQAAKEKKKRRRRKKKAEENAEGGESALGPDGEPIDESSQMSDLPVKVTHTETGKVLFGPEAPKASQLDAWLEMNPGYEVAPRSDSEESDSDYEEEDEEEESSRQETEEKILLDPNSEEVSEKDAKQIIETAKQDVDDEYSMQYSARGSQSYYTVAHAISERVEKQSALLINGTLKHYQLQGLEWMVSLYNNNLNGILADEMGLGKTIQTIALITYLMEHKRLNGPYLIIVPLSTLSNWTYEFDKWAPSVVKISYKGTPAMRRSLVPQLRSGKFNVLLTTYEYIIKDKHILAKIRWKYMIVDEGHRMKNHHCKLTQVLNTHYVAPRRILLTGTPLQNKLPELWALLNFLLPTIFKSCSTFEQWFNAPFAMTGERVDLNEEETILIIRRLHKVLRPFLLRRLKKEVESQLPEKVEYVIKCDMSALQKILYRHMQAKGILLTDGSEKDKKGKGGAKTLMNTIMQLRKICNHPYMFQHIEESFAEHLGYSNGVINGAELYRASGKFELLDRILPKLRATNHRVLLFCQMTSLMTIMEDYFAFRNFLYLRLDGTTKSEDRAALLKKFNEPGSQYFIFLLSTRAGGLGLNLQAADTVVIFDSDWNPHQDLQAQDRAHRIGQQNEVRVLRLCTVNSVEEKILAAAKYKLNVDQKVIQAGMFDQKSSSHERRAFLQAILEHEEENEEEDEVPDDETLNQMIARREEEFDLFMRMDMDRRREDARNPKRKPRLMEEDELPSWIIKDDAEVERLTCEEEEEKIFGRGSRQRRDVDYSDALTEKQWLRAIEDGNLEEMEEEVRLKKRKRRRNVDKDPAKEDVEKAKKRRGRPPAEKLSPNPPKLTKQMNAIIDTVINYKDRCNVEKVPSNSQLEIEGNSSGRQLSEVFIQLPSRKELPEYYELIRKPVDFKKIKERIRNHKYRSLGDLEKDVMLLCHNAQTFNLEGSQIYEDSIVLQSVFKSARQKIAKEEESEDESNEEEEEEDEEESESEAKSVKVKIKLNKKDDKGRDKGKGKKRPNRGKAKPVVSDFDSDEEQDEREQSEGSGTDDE

O=C(O)Cn1cccc1C(=O)c1ccccc1
IC50 [1]: > 59.6 µM (inactive) | IC50 [2]: > 59.6 µM (inactive) | IC50 [3]: > 59.6 µM (inactive)

O=C(Nc1ccccc1Cl)NC1CCCCCCC1
IC50 [4]: > 67.5 µM (inactive) | IC50 [5]: > 67.5 µM (inactive)

Cc1ccc(CN2CCN(c3ncccn3)CC2)c(C)c1
EC50 [6]: 92.4 µM (inactive) | EC50 [7]: 0.337 µM (active)

Cn1c(O)c(N=Nc2nc(-c3ccccc3)cs2)c2ccccc21
EC50 [8]: 3.21 µM (active) | EC50 [9]: > 40 µM (inactive) | EC50 [10]: 7.09 µM (active) | IC50 [11]: > 40 µM (not active) | EC50 [12]: > 150 µM (not active)

Cc1c(OCC(=O)N2CCC[C@@H]2C(=O)O)ccc2c3c(c(=O)oc12)CCC3
IC50 [1]: > 59.6 µM (inactive) | IC50 [2]: > 59.6 µM (inactive) | IC50 [3]: > 59.6 µM (inactive)

O=C(CCN1CCN(c2ccccc2F)CC1)Nc1ccc2c(c1)OCO2
EC50 [13]: > 120 µM (not active) | EC50 [14]: > 120 µM (not active) | EC50 [15]: > 120 µM (not active) | EC50 [6]: 92.5 µM (inactive) | EC50 [7]: 76.1 µM (inactive)

COc1ccc2c(c1)c(C(=O)CN1CCC3(CC1)OCCO3)c(C)n2Cc1ccccc1
AC50 [16]: 3.41 µM (active)

O=C(CN1C(=O)C2CC=CCC2C1=O)OCC(=O)c1ccc(Cl)c([N+](=O)[O-])c1 (stereo unspecified)
EC50 [9]: > 40 µM (inactive) | IC50 [11]: 16.3 µM (active)

COc1ccccc1NC(=O)N[C@@H]1CC[C@H](CCn2cc(-c3cccnc3)nn2)O[C@H]1CO
AC50 [16]: 2.59 µM (active)

CCCC(=O)C1=C(c2ccccc2)C(C#N)(C#N)C(C#N)=C1N
AC50 [17]: 32 µM (inactive)

CCSC1(SCC)N=C(N)C2(C#N)C(c3ccc(OC)c(OC)c3OC)C12C#N (stereo unspecified)
EC50 [9]: > 40 µM (inactive) | IC50 [18]: > 100 µM (active) | IC50 [11]: 27.5 µM (not active) | EC50 [19]: 6.63 µM (active)

Cc1ccc(NC(=O)CSc2nc(=O)n(CCCN3CCOCC3)c3c2CCCC3)cc1F
AC50 [16]: 3.18 µM (active)

COc1ccc(Cl)cc1Nc1nc(-c2sc(NC(=O)CC(C)C)nc2C)cs1
IC50 [20]: > 66.6 µM (inactive) | IC50 [21]: 14.8 µM (active)

COc1cccc(N2CCN(c3nc(O)cc(-c4ccccc4C)n3)CC2)c1
IC50 [22]: 0.0942 µM (active) | EC50 [23]: > 91.2 µM (inactive) | EC50 [24]: > 91.2 µM (inactive)

C=C[C@@]1(C)CC(=O)[C@]2(O)[C@@]3(C)[C@@H](O)CCC(C)(C)[C@@H]3[C@H](O)[C@H](OC(C)=O)[C@@]2(C)O1 [COLFORSIN]
EC50 [25]: > 112 µM (not active) | EC50 [26]: < 0.088 µM (active) | IC50 [4]: > 67.5 µM (inactive) | IC50 [5]: 1.73 µM (active)

CC1(C)C(C=C(Cl)Cl)C1C(=O)N1CCN(Cc2ccccc2)CC1 (stereo unspecified)
EC50 [6]: 92.5 µM (inactive) | EC50 [7]: 1.21 µM (active)

Cc1cc(OCC(=O)N2CCC[C@@H]2C(=O)O)c2c(C)c(C)c(=O)oc2c1
IC50 [1]: > 59.6 µM (inactive) | IC50 [2]: > 59.6 µM (inactive) | IC50 [3]: > 59.6 µM (inactive)

Cn1nnc(NC(=S)NC(=O)c2cccc3ccccc23)n1
EC50 [9]: > 40 µM (inactive) | IC50 [11]: > 40 µM (not active)
